Test results taken from patent US20210122757A1, “SPIROCYCLIC COMPOUNDS AS MODULATORS OF INDOLEAMINE 2,3-DIOXYGENASE” (PHENEX DISCOVERY VERWALTUNGS-GMBH, priority 2018, published 2021).

Biological target: T1, Indoleamine 2,3-dioxygenase (Homo sapiens, UniProt P14902)
T1 construct: endogenous in cells; host or cells: SKOV-3 (ATCC HTB-77), stimulated with 50 ng/ml interferon gamma
Assay: SKOV-3 Cellular Indoleamine 2,3-dioxygenase Assay
Conditions: SKOV-3 cells, 50 ng/ml Interferon gamma, 100 μM L-Tryptophan, 24 hours, N-Formylkynurenin fluorescence detection; read-out: cell based activity (IC50)
Protocol: SKOV-3 Cellular Indoleamine 2,3-dioxygenase Assay
SKOV-3 cells were obtained from the American Type Culture Collection (ATCC® HTB-77™) and maintained in McCoy's medium (Pan Biotech) supplemented with 10% fetal bovine serum and 1% Penicillin/Streptomycin. Cells were kept at 37° C. in a humidified incubator with 5% CO2. For assay preparation, cells were seeded at a density of 2*10^5/ml into black clear bottom 96 well plates in 100 μl medium/well supplemented with 50 ng/ml Interferon gamma (eBioscience, Thermo Fisher Scientific). After cells fully adhered to the plate, dilution series of compounds were added in medium containing additional L-Tryptophan to a final L-Tryptophan concentration of 100 μM. The cells were incubated for 24 hours. Detection of produced N-Formylkynurenin was performed by addition of 3-Methylpiperidine to a final concentration of 200 mM. The plates were sealed and heated to 65° C. for 20 minutes in a water bath. After cooling the fluorescence of each well was recorded with a Victor™X4 (PerkinElmer) plate reader at an emission wavelength of 535 nm and excitation at 405 nm (Tomek et al.; Anal Bioanal Chem (2013) 405:2515-2524, Tomek et al.; Biochim Biophys Acta. 2015 September; 1850(9):1772-80).

T1 sequence (P14902 whole entry): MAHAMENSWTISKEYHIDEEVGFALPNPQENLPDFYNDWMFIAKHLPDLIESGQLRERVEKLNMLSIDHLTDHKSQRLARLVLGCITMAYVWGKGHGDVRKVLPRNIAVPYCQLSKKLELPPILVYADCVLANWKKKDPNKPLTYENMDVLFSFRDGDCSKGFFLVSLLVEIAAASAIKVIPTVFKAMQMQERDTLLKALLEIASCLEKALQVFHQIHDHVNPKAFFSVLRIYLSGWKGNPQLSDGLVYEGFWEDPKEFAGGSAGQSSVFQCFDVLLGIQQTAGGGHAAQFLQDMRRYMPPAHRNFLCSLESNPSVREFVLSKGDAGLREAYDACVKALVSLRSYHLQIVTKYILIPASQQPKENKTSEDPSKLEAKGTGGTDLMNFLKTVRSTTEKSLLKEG

Compound | IC50 [nM]
O=C(C[C@H]1CC[C@@]2(CCc3ccccc32)CC1)Nc1ccc(Cl)cc1 (single isomer, unassigned) [Example 1b, N-(4-chlorophenyl)-2-(2′,3′-dihydrospiro[cyclohexane-1,1′-inden]-4-yl)acetamide] | ≥ 50
O=C(C[C@H]1CC[C@@]2(CCc3ccccc32)CC1)Nc1ccc(Cl)cc1 (single isomer, unassigned) [Example 1c, N-(4-chlorophenyl)-2-(2′,3′-dihydrospiro[cyclohexane-1,1′-inden]-4-yl)acetamide] | < 50
CC(C(=O)Nc1ccc(Cl)cc1)[C@H]1CC[C@@]2(CCc3ccccc32)CC1 (single isomer, unassigned) [Example 2a, N-(4-chlorophenyl)-2-(2′,3′-dihydrospiro[cyclohexane-1,1′-inden]-4-yl)propanamide] | < 50
CC(C(=O)Nc1ccc(Cl)cc1)[C@H]1CC[C@@]2(CCc3ccccc32)CC1 (single isomer, unassigned) [Example 2b, N-(4-chlorophenyl)-2-(2′,3′-dihydrospiro[cyclohexane-1,1′-inden]-4-yl)propanamide] | < 50
CC(C(=O)Nc1ccc(Cl)cc1)C1CCC2(CC1)COc1ncc(C(F)(F)F)cc12 (single isomer, unassigned) [Example 4b, N-(4-chlorophenyl)-2-(5′-(trifluoromethyl)-2′H-spiro[cyclohexane-1,3′-furo[2,3-b]pyridin]-4-yl)propanamide] | ≥ 50
CC(C(=O)Nc1ccc(Cl)cc1)C1CCC2(CC1)COc1ncc(C(F)(F)F)cc12 (single isomer, unassigned) [Example 4c, N-(4-chlorophenyl)-2-(5′-(trifluoromethyl)-2′H-spiro[cyclohexane-1,3′-furo[2,3-b]pyridin]-4-yl)propanamide] | ≥ 50
CC(C(=O)Nc1ccc(Cl)cc1)C1CCC2(CC1)COc1ncc(C(F)(F)F)cc12 (single isomer, unassigned) [Example 4d, N-(4-chlorophenyl)-2-(5′-(trifluoromethyl)-2′H-spiro[cyclohexane-1,3′-furo[2,3-b]pyridin]-4-yl)propanamide] | ≥ 50
CC(C(=O)Nc1ccc(Cl)cc1)C1CCC2(CC1)COc1ncc(C(F)(F)F)cc12 (single isomer, unassigned) [Example 4e, N-(4-chlorophenyl)-2-(5′-(trifluoromethyl)-2′H-spiro[cyclohexane-1,3′-furo[2,3-b]pyridin]-4-yl)propanamide] | < 50
CC(C(=O)Nc1ccc(Cl)cc1)C1CCC2(CC1)COc1nc(C(F)(F)F)ccc12 (single isomer, unassigned) [Example 5b, N-(4-chlorophenyl)-2-(6′-(trifluoromethyl)-2′H-spiro[cyclohexane-1,3′-furo[2,3-b]pyridin]-4-yl)propanamide] | < 50
CC(C(=O)Nc1ccc(Cl)cc1)C1CCC2(CC1)COc1nc(C(F)(F)F)ccc12 (single isomer, unassigned) [Example 5c, N-(4-chlorophenyl)-2-(6′-(trifluoromethyl)-2′H-spiro[cyclohexane-1,3′-furo[2,3-b]pyridin]-4-yl)propanamide] | < 50
CC(C(=O)Nc1ccc(Cl)cc1)C1CCC2(CC1)COc1nc(C(F)(F)F)ccc12 (single isomer, unassigned) [Example 5d, N-(4-chlorophenyl)-2-(6′-(trifluoromethyl)-2′H-spiro[cyclohexane-1,3′-furo[2,3-b]pyridin]-4-yl)propanamide] | ≥ 50
CC(C(=O)Nc1ccc(Cl)cc1)C1CCC2(CC1)COc1nc(C(F)(F)F)ccc12 (single isomer, unassigned) [Example 5e, N-(4-chlorophenyl)-2-(6′-(trifluoromethyl)-2′H-spiro[cyclohexane-1,3′-furo[2,3-b]pyridin]-4-yl)propanamide] | < 50
CC(C(=O)Nc1ccc(Cl)cc1)C1CCC2(CC1)c1ccc(C(F)(F)F)cc1C(=O)N2C (single isomer, unassigned) [Example 6b, N-(4-Chlorophenyl)-2-(2′-methyl-3′-oxo-5′-(trifluoromethyl)spiro[cyclohexane-1,1′-isoindolin]-4-yl)propanamide] | ≥ 50
CC(C(=O)Nc1ccc(Cl)cc1)C1CCC2(CC1)c1ccc(C(F)(F)F)cc1C(=O)N2C (single isomer, unassigned) [Example 6c, N-(4-Chlorophenyl)-2-(2′-methyl-3′-oxo-5′-(trifluoromethyl)spiro[cyclohexane-1,1′-isoindolin]-4-yl)propanamide] | < 50
CC(C(=O)Nc1ccc(Cl)cc1)C1CCC2(CC1)c1ccc(C(F)(F)F)cc1C(=O)N2C (single isomer, unassigned) [Example 6d, N-(4-Chlorophenyl)-2-(2′-methyl-3′-oxo-5′-(trifluoromethyl)spiro[cyclohexane-1,1′-isoindolin]-4-yl)propanamide] | ≥ 50
CC(C(=O)Nc1ccc(Cl)cc1)C1CCC2(CC1)c1ccc(C(F)(F)F)cc1C(=O)N2C (single isomer, unassigned) [Example 6e, N-(4-Chlorophenyl)-2-(2′-methyl-3′-oxo-5′-(trifluoromethyl)spiro[cyclohexane-1,1′-isoindolin]-4-yl)propanamide] | ≥ 50
CC(C(=O)Nc1ccc(Cl)cc1F)C1CCC2(CC1)COc1cc(C(F)(F)F)ccc12 (single isomer, unassigned) [Example 7b, N-(4-Chloro-2-fluorophenyl)-2-(6-(trifluoromethyl)-2H-spiro[benzofuran-3,1′-cyclohexan]-4′-yl)propanamide] | < 50
CC(C(=O)Nc1ccc(Cl)cc1F)C1CCC2(CC1)COc1cc(C(F)(F)F)ccc12 (single isomer, unassigned) [Example 7c, N-(4-Chloro-2-fluorophenyl)-2-(6-(trifluoromethyl)-2H-spiro[benzofuran-3,1′-cyclohexan]-4′-yl)propanamide] | < 50
CC(C(=O)Nc1ccc(Cl)cc1F)C1CCC2(CC1)COc1cc(C(F)(F)F)ccc12 (single isomer, unassigned) [Example 7d, N-(4-Chloro-2-fluorophenyl)-2-(6-(trifluoromethyl)-2H-spiro[benzofuran-3,1′-cyclohexan]-4′-yl)propanamide] | < 50
CC(C(=O)Nc1ccc(Cl)cc1F)C1CCC2(CC1)COc1cc(C(F)(F)F)ccc12 (single isomer, unassigned) [Example 7e, N-(4-Chloro-2-fluorophenyl)-2-(6-(trifluoromethyl)-2H-spiro[benzofuran-3,1′-cyclohexan]-4′-yl)propanamide] | ≥ 50
Cc1ccc(NC(=O)C(C)C2CCC3(CC2)COc2cc(C(F)(F)F)ccc23)cc1 (single isomer, unassigned) [Example 8b, N-(p-Tolyl)-2-(6-(trifluoromethyl)-2H-spiro[benzofuran-3,1′-cyclohexan]-4′-yl)propanamide] | < 50
Cc1ccc(NC(=O)C(C)C2CCC3(CC2)COc2cc(C(F)(F)F)ccc23)cc1 (single isomer, unassigned) [Example 8c, N-(p-Tolyl)-2-(6-(trifluoromethyl)-2H-spiro[benzofuran-3,1′-cyclohexan]-4′-yl)propanamide] | < 50
Cc1ccc(NC(=O)C(C)C2CCC3(CC2)COc2cc(C(F)(F)F)ccc23)cc1 (single isomer, unassigned) [Example 8d, N-(p-Tolyl)-2-(6-(trifluoromethyl)-2H-spiro[benzofuran-3,1′-cyclohexan]-4′-yl)propanamide] | < 50
Cc1ccc(NC(=O)C(C)C2CCC3(CC2)COc2cc(C(F)(F)F)ccc23)cc1 (single isomer, unassigned) [Example 8e, N-(p-Tolyl)-2-(6-(trifluoromethyl)-2H-spiro[benzofuran-3,1′-cyclohexan]-4′-yl)propanamide] | ≥ 50
CC1CCC(NC(=O)C(C)C2CCC3(CC2)COc2cc(C(F)(F)F)ccc23)CC1 (single isomer, unassigned) [Example 9b, N-((1r,4r)-4-Methylcyclohexyl)-2-(6-(trifluoromethyl)-2H-spiro[benzofuran-3,1′-cyclohexan]-4′-yl)propanamide] | ≥ 50
CC1CCC(NC(=O)C(C)C2CCC3(CC2)COc2cc(C(F)(F)F)ccc23)CC1 (single isomer, unassigned) [Example 9c, N-((1r,4r)-4-Methylcyclohexyl)-2-(6-(trifluoromethyl)-2H-spiro[benzofuran-3,1′-cyclohexan]-4′-yl)propanamide] | ≥ 50
CC1CCC(NC(=O)C(C)C2CCC3(CC2)COc2cc(C(F)(F)F)ccc23)CC1 (single isomer, unassigned) [Example 9d, N-((1r,4r)-4-Methylcyclohexyl)-2-(6-(trifluoromethyl)-2H-spiro[benzofuran-3,1′-cyclohexan]-4′-yl)propanamide] | ≥ 50
CC1CCC(NC(=O)C(C)C2CCC3(CC2)COc2cc(C(F)(F)F)ccc23)CC1 (single isomer, unassigned) [Example 9e, N-((1r,4r)-4-Methylcyclohexyl)-2-(6-(trifluoromethyl)-2H-spiro[benzofuran-3,1′-cyclohexan]-4′-yl)propanamide] | < 50
